Data from the supplement of paper PMC10307832.

What was measured:
Assay in all cases: relative viability (nuclei count vs DMSO), 5 days (fraction); higher = more cells survive
NCI-H2009 = system: NCI-H2009
Procedure, shortened: (§1)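 Each reported value is a median over duplicate plates. It expresses relative viability: treated-well nuclei count divided by vehicle-well nuclei count. Lung cancer cell lines in 1536-well plates were dosed by pin tool a day after seeding, alone with one drug or with a fixed anchor-drug dose plus five library-drug doses (not always all listed) in √10 steps, and nuclei were counted after 5 days.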

NCI-H2023 = system: NCI-H2023
Procedure, shortened: as §1

HARA = system: HARA
Procedure, shortened: as §1

NCI-H650 = system: NCI-H650
Procedure, shortened: as §1

H3255 = system: H3255
Procedure, shortened: as §1

LOU-NH91 = system: LOU-NH91
Procedure, shortened: as §1

NCI-H1650 = system: NCI-H1650
Procedure, shortened: as §1

NCI-H838 = system: NCI-H838
Procedure, shortened: as §1

NCI-H2087 = system: NCI-H2087
Procedure, shortened: as §1

NCI-H1651 = system: NCI-H1651
Procedure, shortened: as §1

EPLC-272H = system: EPLC-272H
Procedure, shortened: as §1

SW 1573 = system: SW 1573
Procedure, shortened: as §1

NCI-H1975 = system: NCI-H1975
Procedure, shortened: as §1

NCI-H2085 = system: NCI-H2085
Procedure, shortened: as §1

NCI-H727 = system: NCI-H727
Procedure, shortened: as §1

LC-2-ad = system: LC-2-ad
Procedure, shortened: as §1

NCI-H2228 = system: NCI-H2228
Procedure, shortened: as §1

NCI-H2170 = system: NCI-H2170
Procedure, shortened: as §1

UMC-11 = system: UMC-11
Procedure, shortened: as §1

PC-3 [JPC-3] = system: PC-3 [JPC-3]
Procedure, shortened: as §1

NCI-H23 = system: NCI-H23
Procedure, shortened: as §1

Structure (SMILES): CN1CCN(CCOc2cc(OC3CCOCC3)c3c(Nc4c(Cl)ccc5c4OCO5)ncnc3c2)CC1 [Saracatinib] + CS(=O)(=O)CCNCc1ccc(-c2ccc3ncnc(Nc4ccc(OCc5cccc(F)c5)c(Cl)c4)c3c2)o1 [Lapatinib] (partner 2 µM)
- relative viability (NCI-H2009; first compound 0.02 µM): 0.992
- relative viability (NCI-H2009; first compound 0.2 µM): 0.889
- relative viability (NCI-H2009; first compound 0.6325 µM): 1.06
- relative viability (NCI-H2009; first compound 2 µM): 0.772
- relative viability (NCI-H2023; first compound 0.02 µM): 1.33
- relative viability (NCI-H2023; first compound 0.2 µM): 0.701
- relative viability (NCI-H2023; first compound 0.6325 µM): 0.998
- relative viability (NCI-H2023; first compound 2 µM): 0.698
- relative viability (HARA; first compound 0.02 µM): 0.808
- relative viability (HARA; first compound 0.6325 µM): 1.1
- relative viability (HARA; first compound 2 µM): 0.442
- relative viability (NCI-H650; first compound 0.02 µM): 1
- relative viability (NCI-H650; first compound 0.2 µM): 0.85
- relative viability (NCI-H650; first compound 0.6325 µM): 0.928
- relative viability (NCI-H650; first compound 2 µM): 1.17
- relative viability (H3255; first compound 0.02 µM): 0.27
- relative viability (H3255; first compound 0.2 µM): 0.241
- relative viability (H3255; first compound 0.6325 µM): 0.271
- relative viability (H3255; first compound 2 µM): 0.239
- relative viability (LOU-NH91; first compound 0.02 µM): 0.824
- relative viability (LOU-NH91; first compound 0.2 µM): 0.713
- relative viability (LOU-NH91; first compound 0.6325 µM): 0.747
- relative viability (LOU-NH91; first compound 2 µM): 0.652
- relative viability (NCI-H1650; first compound 0.02 µM): 0.779
- relative viability (NCI-H1650; first compound 0.2 µM): 0.803
- relative viability (NCI-H1650; first compound 0.6325 µM): 0.573
- relative viability (NCI-H1650; first compound 2 µM): 0.47
- relative viability (NCI-H838; first compound 0.02 µM): 0.979
- relative viability (NCI-H838; first compound 0.2 µM): 0.893
- relative viability (NCI-H838; first compound 0.6325 µM): 0.842
- relative viability (NCI-H838; first compound 2 µM): 0.655
- relative viability (NCI-H2087; first compound 0.02 µM): 1.1
- relative viability (NCI-H2087; first compound 0.2 µM): 1.03
- relative viability (NCI-H2087; first compound 0.6325 µM): 1.25
- relative viability (NCI-H2087; first compound 2 µM): 0.981
- relative viability (NCI-H1651; first compound 0.02 µM): 0.92
- relative viability (NCI-H1651; first compound 0.2 µM): 0.678
- relative viability (NCI-H1651; first compound 0.6325 µM): 0.873
- relative viability (NCI-H1651; first compound 2 µM): 0.695
- relative viability (EPLC-272H; first compound 0.02 µM): 1.01
- relative viability (EPLC-272H; first compound 0.2 µM): 0.806
- relative viability (EPLC-272H; first compound 0.6325 µM): 1.05
- relative viability (EPLC-272H; first compound 2 µM): 0.893
- relative viability (SW 1573; first compound 0.02 µM): 1.27
- relative viability (SW 1573; first compound 0.2 µM): 1.1
- relative viability (SW 1573; first compound 0.6325 µM): 1.16
- relative viability (SW 1573; first compound 2 µM): 1.14
- relative viability (NCI-H1975; first compound 0.02 µM): 1.03
- relative viability (NCI-H1975; first compound 0.6325 µM): 0.819
- relative viability (NCI-H1975; first compound 2 µM): 0.687
- relative viability (NCI-H2085; first compound 0.02 µM): 0.802
- relative viability (NCI-H2085; first compound 0.2 µM): 0.615
- relative viability (NCI-H2085; first compound 0.6325 µM): 0.811
- relative viability (NCI-H2085; first compound 2 µM): 0.725
- relative viability (NCI-H727; first compound 0.02 µM): 0.688
- relative viability (NCI-H727; first compound 0.2 µM): 0.647
- relative viability (NCI-H727; first compound 0.6325 µM): 0.78
- relative viability (NCI-H727; first compound 2 µM): 0.587
- relative viability (LC-2-ad; first compound 0.02 µM): 1.06
- relative viability (LC-2-ad; first compound 0.6325 µM): 0.998
- relative viability (LC-2-ad; first compound 2 µM): 0.761
- relative viability (NCI-H2228; first compound 0.02 µM): 1.35
- relative viability (NCI-H2228; first compound 0.2 µM): 0.995
- relative viability (NCI-H2228; first compound 0.6325 µM): 1.07
- relative viability (NCI-H2228; first compound 2 µM): 0.674
- relative viability (NCI-H2170; first compound 0.02 µM): 0.28
- relative viability (NCI-H2170; first compound 0.2 µM): 0.246
- relative viability (NCI-H2170; first compound 0.6325 µM): 0.293
- relative viability (NCI-H2170; first compound 2 µM): 0.231
- relative viability (UMC-11; first compound 0.02 µM): 0.931
- relative viability (UMC-11; first compound 0.2 µM): 0.763
- relative viability (UMC-11; first compound 0.6325 µM): 0.896
- relative viability (UMC-11; first compound 2 µM): 0.78
- relative viability (PC-3 [JPC-3]; first compound 0.02 µM): 0.439
- relative viability (PC-3 [JPC-3]; first compound 0.2 µM): 0.393
- relative viability (PC-3 [JPC-3]; first compound 0.6325 µM): 0.43
- relative viability (PC-3 [JPC-3]; first compound 2 µM): 0.402
- relative viability (NCI-H23; first compound 0.02 µM): 1.13
- relative viability (NCI-H23; first compound 0.6325 µM): 1.28
- relative viability (NCI-H23; first compound 2 µM): 0.895
